Test results as given in US20050282743A1, “Molecular interactions in cells” (Arbor Vita Corporation, priority 2001, published 2005).
Ends that are not written are not given here. Peptide text beside a SMILES is read from it. * marks the point of attachment. Biotin = O=C1N[C@H]2[C@H](CS[C@H]2CCCCC(=O)*)N1

Legend:
Test in all cases: G' assay (10 uM PL peptide), results of TABLE 7 and TABLE 12
Assay type in all cases: binding
[1] = molecular target: T1, PDZ protein (GST-PDZ fusion) (Homo sapiens, UniProt O15085); conditions: PDZ KIAA0380, PDZ Domain 1
T1 construct: made in house; host or cells: E. coli (DH5alpha, BL21 or JM109)
How it was run: (§1)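 Same steps as the G-zero format, apart from a peptide concentration of 10 uM in place of 20 uM in step 2. Amino-terminally biotinylated PL peptides bind GST-PDZ fusions, and retained peptide is quantified by 450 nm absorbance.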

[2] = molecular target: T2, PDZ protein (GST-PDZ fusion) (Homo sapiens, UniProt P29475); conditions: PDZ NOS1, PDZ Domain 1
T2 construct: made in house; host or cells: E. coli (DH5alpha, BL21 or JM109)
How it was run: as §1

[3] = molecular target: T3, PDZ protein (GST-PDZ fusion) (Homo sapiens, UniProt P50479); conditions: PDZ LIM RIL, PDZ Domain 1
T3 construct: made in house; host or cells: E. coli (DH5alpha, BL21 or JM109)
T3 sequence (P50479 1-330): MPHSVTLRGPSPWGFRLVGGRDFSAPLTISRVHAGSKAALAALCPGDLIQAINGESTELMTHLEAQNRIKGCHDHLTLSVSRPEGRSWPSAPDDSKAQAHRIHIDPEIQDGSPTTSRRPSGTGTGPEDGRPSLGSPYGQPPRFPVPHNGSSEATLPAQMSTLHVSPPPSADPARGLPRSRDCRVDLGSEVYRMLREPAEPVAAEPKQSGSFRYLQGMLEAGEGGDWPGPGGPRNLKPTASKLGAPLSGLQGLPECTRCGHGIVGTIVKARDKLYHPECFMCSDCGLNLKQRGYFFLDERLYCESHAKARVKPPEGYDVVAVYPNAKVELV
How it was run: as §1

[4] = molecular target: T4, PDZ protein (GST-PDZ fusion) (Homo sapiens, UniProt Q96JY6); conditions: PDZ LIM-Mystique, PDZ Domain 1
T4 construct: made in house; host or cells: E. coli (DH5alpha, BL21 or JM109)
T4 sequence (Q96JY6 1-352): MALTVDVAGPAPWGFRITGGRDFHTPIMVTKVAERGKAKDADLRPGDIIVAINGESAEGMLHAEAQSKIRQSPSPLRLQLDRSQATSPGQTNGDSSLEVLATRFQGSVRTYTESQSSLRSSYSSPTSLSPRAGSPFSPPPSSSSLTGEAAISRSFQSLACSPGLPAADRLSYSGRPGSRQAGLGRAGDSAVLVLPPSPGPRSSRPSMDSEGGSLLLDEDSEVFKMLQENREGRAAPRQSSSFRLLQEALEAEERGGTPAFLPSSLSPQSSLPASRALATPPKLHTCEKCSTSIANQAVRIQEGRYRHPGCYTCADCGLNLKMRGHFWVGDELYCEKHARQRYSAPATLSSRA
How it was run: as §1

[5] = molecular target: T5, PDZ protein (GST-PDZ fusion) (Homo sapiens, UniProt Q96RT1); conditions: PDZ Erbin, PDZ Domain 1
T5 construct: made in house; host or cells: E. coli (DH5alpha, BL21 or JM109)
How it was run: as §1

[6] = molecular target: T6, PDZ protein (GST-PDZ fusion) (Homo sapiens, UniProt Q5T2W1)
T6 construct: made in house; host or cells: E. coli (DH5alpha, BL21 or JM109)
T6 sequence (Q5T2W1 1-519): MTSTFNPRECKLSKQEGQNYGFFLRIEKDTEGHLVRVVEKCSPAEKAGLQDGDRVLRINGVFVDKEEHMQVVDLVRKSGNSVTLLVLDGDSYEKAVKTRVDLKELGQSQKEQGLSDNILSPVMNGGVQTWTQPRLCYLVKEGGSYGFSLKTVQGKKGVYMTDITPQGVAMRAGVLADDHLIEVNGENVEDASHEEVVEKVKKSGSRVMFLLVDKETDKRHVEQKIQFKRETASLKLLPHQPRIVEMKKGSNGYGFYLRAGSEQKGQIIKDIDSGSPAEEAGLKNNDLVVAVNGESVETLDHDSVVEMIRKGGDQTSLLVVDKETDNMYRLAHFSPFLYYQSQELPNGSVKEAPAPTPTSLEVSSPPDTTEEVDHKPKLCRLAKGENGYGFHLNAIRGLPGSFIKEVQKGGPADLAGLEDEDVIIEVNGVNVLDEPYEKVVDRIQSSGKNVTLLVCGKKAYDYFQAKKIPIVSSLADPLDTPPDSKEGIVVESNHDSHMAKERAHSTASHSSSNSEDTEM
How it was run: as §1

T5 sequence (Q96RT1 whole entry, the tested form may be a part): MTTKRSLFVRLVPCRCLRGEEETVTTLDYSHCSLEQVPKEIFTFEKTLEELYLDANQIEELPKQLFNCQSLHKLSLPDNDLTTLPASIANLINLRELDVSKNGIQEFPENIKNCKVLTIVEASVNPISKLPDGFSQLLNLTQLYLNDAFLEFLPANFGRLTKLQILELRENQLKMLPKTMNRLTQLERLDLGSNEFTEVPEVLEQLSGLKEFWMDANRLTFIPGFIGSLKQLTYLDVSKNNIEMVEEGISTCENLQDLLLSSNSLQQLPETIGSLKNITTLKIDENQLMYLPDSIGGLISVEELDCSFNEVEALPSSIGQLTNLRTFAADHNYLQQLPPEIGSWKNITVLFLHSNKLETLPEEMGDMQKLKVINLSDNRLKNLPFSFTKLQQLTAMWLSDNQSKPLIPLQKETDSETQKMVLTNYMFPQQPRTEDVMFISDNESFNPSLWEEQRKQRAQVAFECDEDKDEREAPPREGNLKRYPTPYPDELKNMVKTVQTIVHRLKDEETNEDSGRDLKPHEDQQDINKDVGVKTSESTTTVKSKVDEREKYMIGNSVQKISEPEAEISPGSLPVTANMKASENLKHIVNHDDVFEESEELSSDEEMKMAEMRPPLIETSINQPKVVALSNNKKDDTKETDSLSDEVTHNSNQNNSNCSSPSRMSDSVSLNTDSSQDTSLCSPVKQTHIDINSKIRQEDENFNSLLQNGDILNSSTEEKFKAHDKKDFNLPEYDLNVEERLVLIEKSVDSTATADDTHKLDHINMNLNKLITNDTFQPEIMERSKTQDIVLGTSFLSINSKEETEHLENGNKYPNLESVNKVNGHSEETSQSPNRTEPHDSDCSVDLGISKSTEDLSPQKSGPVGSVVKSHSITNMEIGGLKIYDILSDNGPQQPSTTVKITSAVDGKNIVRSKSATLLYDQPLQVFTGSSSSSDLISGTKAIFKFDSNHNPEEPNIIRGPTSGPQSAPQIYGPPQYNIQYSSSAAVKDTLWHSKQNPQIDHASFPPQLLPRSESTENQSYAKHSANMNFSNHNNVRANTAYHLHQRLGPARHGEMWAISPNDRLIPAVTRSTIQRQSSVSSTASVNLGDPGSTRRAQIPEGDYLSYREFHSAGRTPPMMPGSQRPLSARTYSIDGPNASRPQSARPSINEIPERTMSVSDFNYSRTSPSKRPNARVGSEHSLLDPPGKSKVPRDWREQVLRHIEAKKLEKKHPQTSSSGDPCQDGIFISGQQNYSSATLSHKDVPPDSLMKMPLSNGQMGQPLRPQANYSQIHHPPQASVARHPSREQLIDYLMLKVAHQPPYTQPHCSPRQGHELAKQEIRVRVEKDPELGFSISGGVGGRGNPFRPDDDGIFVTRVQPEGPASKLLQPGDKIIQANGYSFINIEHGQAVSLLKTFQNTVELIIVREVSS
T1 sequence (O15085 whole entry, the tested form may be a part): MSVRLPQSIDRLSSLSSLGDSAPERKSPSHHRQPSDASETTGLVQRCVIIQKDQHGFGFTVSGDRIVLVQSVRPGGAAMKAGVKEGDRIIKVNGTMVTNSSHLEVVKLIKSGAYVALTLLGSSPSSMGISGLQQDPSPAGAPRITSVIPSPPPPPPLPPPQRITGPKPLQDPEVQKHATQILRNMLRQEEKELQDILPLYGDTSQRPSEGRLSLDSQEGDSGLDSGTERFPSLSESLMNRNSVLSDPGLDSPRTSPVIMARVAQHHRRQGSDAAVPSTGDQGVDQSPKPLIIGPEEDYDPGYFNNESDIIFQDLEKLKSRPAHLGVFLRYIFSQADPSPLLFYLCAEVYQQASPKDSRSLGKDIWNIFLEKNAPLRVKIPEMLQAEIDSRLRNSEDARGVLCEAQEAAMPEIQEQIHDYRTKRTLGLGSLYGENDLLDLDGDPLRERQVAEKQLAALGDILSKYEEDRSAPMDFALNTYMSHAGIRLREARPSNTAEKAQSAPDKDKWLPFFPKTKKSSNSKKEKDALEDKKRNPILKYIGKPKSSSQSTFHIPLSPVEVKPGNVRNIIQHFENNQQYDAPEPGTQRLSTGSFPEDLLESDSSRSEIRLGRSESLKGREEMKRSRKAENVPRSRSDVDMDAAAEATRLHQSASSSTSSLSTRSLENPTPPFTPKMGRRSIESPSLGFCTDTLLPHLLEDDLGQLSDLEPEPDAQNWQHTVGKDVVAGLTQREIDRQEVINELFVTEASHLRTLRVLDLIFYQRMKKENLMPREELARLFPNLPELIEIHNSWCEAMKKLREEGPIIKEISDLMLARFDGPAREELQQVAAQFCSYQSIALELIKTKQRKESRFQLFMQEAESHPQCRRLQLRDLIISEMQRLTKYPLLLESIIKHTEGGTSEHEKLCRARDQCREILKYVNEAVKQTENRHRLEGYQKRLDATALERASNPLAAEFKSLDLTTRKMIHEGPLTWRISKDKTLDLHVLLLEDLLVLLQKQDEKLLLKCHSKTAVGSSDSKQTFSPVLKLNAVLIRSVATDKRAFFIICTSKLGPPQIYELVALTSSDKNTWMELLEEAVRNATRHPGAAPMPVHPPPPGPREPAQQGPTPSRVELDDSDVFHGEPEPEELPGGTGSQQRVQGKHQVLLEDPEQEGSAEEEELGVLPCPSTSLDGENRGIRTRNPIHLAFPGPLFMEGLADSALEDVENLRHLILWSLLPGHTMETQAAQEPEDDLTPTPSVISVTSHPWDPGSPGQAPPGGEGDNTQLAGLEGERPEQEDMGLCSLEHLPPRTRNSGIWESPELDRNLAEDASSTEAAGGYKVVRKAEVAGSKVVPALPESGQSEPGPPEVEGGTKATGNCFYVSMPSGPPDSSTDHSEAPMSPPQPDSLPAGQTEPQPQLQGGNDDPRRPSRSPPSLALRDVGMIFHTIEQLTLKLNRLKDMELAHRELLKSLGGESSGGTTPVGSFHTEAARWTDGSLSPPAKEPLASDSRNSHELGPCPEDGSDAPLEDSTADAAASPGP
T2 sequence (P29475 whole entry, the tested form may be a part): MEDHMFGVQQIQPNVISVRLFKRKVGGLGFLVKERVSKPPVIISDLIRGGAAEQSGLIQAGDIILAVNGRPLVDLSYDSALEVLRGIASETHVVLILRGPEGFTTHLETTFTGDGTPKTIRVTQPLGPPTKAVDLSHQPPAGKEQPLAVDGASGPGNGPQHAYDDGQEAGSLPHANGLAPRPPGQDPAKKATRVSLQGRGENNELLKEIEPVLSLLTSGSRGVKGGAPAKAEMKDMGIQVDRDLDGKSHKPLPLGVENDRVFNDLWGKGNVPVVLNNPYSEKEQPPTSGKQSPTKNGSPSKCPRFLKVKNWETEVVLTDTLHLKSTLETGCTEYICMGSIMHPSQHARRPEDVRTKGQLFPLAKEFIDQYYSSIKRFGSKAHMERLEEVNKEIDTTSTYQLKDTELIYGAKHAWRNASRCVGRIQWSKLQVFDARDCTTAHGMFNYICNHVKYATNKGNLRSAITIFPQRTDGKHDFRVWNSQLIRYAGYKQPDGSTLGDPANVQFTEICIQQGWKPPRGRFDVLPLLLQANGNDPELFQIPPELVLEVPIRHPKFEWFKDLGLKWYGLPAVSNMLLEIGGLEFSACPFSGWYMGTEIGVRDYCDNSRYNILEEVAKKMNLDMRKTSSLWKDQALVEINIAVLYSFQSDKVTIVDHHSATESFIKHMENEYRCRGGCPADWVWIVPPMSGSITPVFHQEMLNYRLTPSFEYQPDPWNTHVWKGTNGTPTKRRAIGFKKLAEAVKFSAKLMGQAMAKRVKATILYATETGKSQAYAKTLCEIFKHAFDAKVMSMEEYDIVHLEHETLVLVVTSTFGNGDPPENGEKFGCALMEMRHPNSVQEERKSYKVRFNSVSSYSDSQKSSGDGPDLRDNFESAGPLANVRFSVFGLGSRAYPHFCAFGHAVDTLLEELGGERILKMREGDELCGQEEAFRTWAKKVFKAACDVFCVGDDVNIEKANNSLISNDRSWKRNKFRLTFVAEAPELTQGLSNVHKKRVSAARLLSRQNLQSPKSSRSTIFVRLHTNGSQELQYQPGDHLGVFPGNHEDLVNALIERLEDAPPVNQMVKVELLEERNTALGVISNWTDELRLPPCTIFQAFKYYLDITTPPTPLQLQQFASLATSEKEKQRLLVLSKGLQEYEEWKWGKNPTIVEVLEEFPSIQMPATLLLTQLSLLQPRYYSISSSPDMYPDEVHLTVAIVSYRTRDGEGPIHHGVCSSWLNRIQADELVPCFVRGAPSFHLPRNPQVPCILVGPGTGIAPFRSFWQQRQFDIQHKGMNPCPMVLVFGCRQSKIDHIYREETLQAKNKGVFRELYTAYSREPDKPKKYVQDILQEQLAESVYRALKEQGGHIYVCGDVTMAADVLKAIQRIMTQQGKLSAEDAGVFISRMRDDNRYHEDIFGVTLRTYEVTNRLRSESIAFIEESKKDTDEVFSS

Compound	Classification [1]	Classification [2]	Classification [3]	Classification [4]	Classification [5]	Classification ([6]; PDZ PDZK-1, PDZ Domain 4)	Classification ([6]; PDZ PDZK1, PDZ Domain 2, 3, 4)	Classification ([2]; PL peptide 10 uM)
CC(C)C[C@H](NC(=O)[C@H](C)NC(=O)[C@H](CO)NC(=O)CNC(=O)[C@@H](NC(=O)CCCC[C@@H]1SC[C@@H]2NC(=O)N[C@@H]21)[C@@H](C)O)C(=O)N[C@@H](CCC(N)=O)C(=O)N[C@@H](C)C(=O)N[C@@H](Cc1c[nH]c2ccccc12)C(=O)N[C@@H](CCCNC(=N)N)C(=O)N[C@@H](Cc1c[nH]cn1)C(=O)N[C@H](C(=O)N[C@@H](CO)C(=O)N[C@@H](CCCNC(=N)N)C(=O)N[C@@H](CCC(N)=O)C(=O)N[C@@H](C)C(=O)N[C@H](C(=O)N[C@@H](CCC(=O)O)C(=O)N[C@@H](CO)C(=O)N[C@H](C(=O)N[C@H](C(=O)O)C(C)C)[C@@H](C)O)[C@@H](C)O)[C@@H](C)O [HPV E6 #66 (modified)] (Biotin-TGSALQAWRHTSRQATESTV-OH; C-terminus assumed)					1 (A450 nm 0-1)			
CSCC[C@H](NC(=O)[C@H](C)NC(=O)[C@H](CCCNC(=N)N)NC(=O)CNC(=O)[C@@H](NC(=O)[C@H](Cc1c[nH]c2ccccc12)NC(=O)[C@H](CCCNC(=N)N)NC(=O)CNC(=O)CCCC[C@@H]1SC[C@@H]2NC(=O)N[C@@H]21)[C@@H](C)O)C(=O)N[C@@H](CO)C(=O)N[C@@H](C)C(=O)N[C@@H](Cc1c[nH]c2ccccc12)C(=O)N[C@@H](CCCCN)C(=O)N1CCC[C@H]1C(=O)N[C@H](C(=O)N[C@@H](CCCNC(=N)N)C(=O)N[C@@H](CCCNC(=N)N)C(=O)N[C@@H](CCC(=O)O)C(=O)N[C@H](C(=O)N[C@@H](CCC(=O)O)C(=O)N[C@H](C(=O)O)C(C)C)[C@@H](C)O)[C@@H](C)O [HPV E6 #35 (modified)] (Biotin-GRWTGRAMSAWKPTRRETEV-OH; C-terminus assumed)	3 (A450 nm 2-3)	1 (A450 nm 0-1)	4 (A450 nm 3-4)	1 (A450 nm 0-1)	2 (A450 nm 1-2)			
CC(C)C[C@H](NC(=O)[C@H](C)NC(=O)[C@@H](NC(=O)[C@@H](NC(=O)[C@H](Cc1c[nH]cn1)NC(=O)[C@H](CC(C)C)NC(=O)CNC(=O)[C@H](CCC(N)=O)NC(=O)CNC(=O)CNC(=O)[C@H](C)NC(=O)[C@H](C)NC(=O)[C@H](CCCNC(=N)N)NC(=O)[C@H](C)NC(=O)[C@H](CO)NC(=O)[C@H](CC(=O)O)NC(=O)[C@H](CC(=O)O)NC(=O)[C@H](Cc1c[nH]c2ccccc12)NC(=O)[C@H](C)NC(=O)CCCC[C@@H]1SC[C@@H]2NC(=O)N[C@@H]21)C(C)C)[C@@H](C)O)C(=O)O [LPAP] (Biotin-AWDDSARAAGGQGLHVTAL-OH; C-terminus assumed)		1 (A450 nm 0-1)					3 (A450 nm 2-3)	
CC[C@H](C)[C@H](NC(=O)[C@H](CCC(N)=O)NC(=O)CCCC[C@@H]1SC[C@@H]2NC(=O)N[C@@H]21)C(=O)N[C@@H](CO)C(=O)N1CCC[C@H]1C(=O)NCC(=O)NCC(=O)N[C@@H](CC(C)C)C(=O)N[C@@H](CCC(=O)O)C(=O)N1CCC[C@H]1C(=O)N1CCC[C@H]1C(=O)N[C@@H](CO)C(=O)N[C@@H](CCC(=O)O)C(=O)N[C@@H](CCCCN)C(=O)N[C@@H](Cc1c[nH]cn1)C(=O)N[C@@H](Cc1ccccc1)C(=O)N[C@@H](CCCNC(=N)N)C(=O)N[C@@H](CCC(=O)O)C(=O)N[C@H](C(=O)N[C@@H](CCC(=O)O)C(=O)N[C@H](C(=O)O)C(C)C)[C@@H](C)O [Tax]			1 (A450 nm 0-1)	1 (A450 nm 0-1)	5 (A450 nm of 4 more than 2× repeated)			
CC[C@H](C)[C@H](NC(=O)[C@H](CCCCN)NC(=O)[C@@H](NC(=O)[C@H](CO)NC(=O)[C@@H]1CCCN1C(=O)[C@H](Cc1ccccc1)NC(=O)[C@@H](NC(=O)[C@@H](NC(=O)[C@H](CCCNC(=N)N)NC(=O)[C@H](CCC(=O)O)NC(=O)[C@H](CC(C)C)NC(=O)[C@H](CC(C)C)NC(=O)[C@H](CC(C)C)NC(=O)[C@@H](NC(=O)CNC(=O)[C@@H](NC(=O)CCCC[C@@H]1SC[C@@H]2NC(=O)N[C@@H]21)C(C)C)[C@@H](C)O)C(C)C)[C@@H](C)CC)C(C)C)C(=O)N[C@@H](C)C(=O)N[C@H](C(=O)N[C@@H](CC(C)C)C(=O)N[C@H](C(=O)O)C(C)C)[C@@H](C)O [Adenovirus E4 Type9]								5 (A450 nm of 4 more than 2× repeated)

Further lines, with some results ahead:

Classification [1]	Classification [2]	Classification [3]	Classification [4]	Classification [5]	Classification ([6]; PDZ PDZK-1, PDZ Domain 4)	Compound	Classification ([6]; PDZ PDZK1, PDZ Domain 2, 3, 4)	Classification ([2]; PL peptide 10 uM)
1 (A450 nm 0-1)	1 (A450 nm 0-1)	5 (A450 nm of 4 more than 2× repeated)	4 (A450 nm 3-4)	4 (A450 nm 3-4)		TQGFPGPATWRRISSLESEV		
1 (A450 nm 0-1)		5 (A450 nm of 4 more than 2× repeated)	5 (A450 nm of 4 more than 2× repeated)	1 (A450 nm 0-1)		CC(C)C[C@H](NC(=O)[C@H](CC(=O)O)NC(=O)[C@H](CO)NC(=O)[C@H](CCC(=O)O)NC(=O)CNC(=O)[C@H](Cc1ccc(O)cc1)NC(=O)[C@H](CC(C)C)NC(=O)[C@H](C)NC(=O)[C@H](CO)NC(=O)[C@H](CO)NC(=O)[C@H](Cc1ccccc1)NC(=O)[C@H](C)NC(=O)[C@H](C)NC(=O)[C@H](Cc1ccc(O)cc1)NC(=O)[C@H](CC(=O)O)NC(=O)[C@H](CC(C)C)NC(=O)[C@H](C)NC(=O)CNC(=O)[C@@H]1CCCN1C(=O)[C@@H](NC(=O)CCCC[C@@H]1SC[C@@H]2NC(=O)N[C@@H]21)C(C)C)C(=O)O [a-actinin 2] (Biotin-VPGALDYAAFSSALYGESDL-OH; C-terminus assumed)		
		2 (A450 nm 1-2)	5 (A450 nm of 4 more than 2× repeated)	4 (A450 nm 3-4)		PYSELNYETSHYPASPDSWV (Biotin-PYSELNYETSHYPASPDSWV) [catenin - delta 2]		
	2 (A450 nm 1-2)	2 (A450 nm 1-2)	2 (A450 nm 1-2)	3 (A450 nm 2-3)		ELLQFCRTPNPALKNGQYWV (Biotin-ELLQFCRTPNPALKNGQYWV)		
	4 (A450 nm 3-4)				1 (A450 nm 0-1)	CC[C@H](C)[C@H](NC(=O)[C@H](Cc1ccc(O)cc1)NC(=O)[C@@H](NC(=O)[C@@H]1CCCN1C(=O)[C@H](CCC(N)=O)NC(=O)[C@H](CCC(=O)O)NC(=O)[C@H](CCC(N)=O)NC(=O)[C@H](C)NC(=O)[C@@H](NC(=O)[C@H](CC(C)C)NC(=O)[C@H](CC(C)C)NC(=O)[C@H](CCCNC(=N)N)NC(=O)[C@H](Cc1ccc(O)cc1)NC(=O)[C@H](CCSC)NC(=O)[C@H](C)NC(=O)[C@H](C)NC(=O)[C@@H]1CCCN1C(=O)[C@H](CCSC)NC(=O)[C@@H](NC(=O)[C@H](CCCCN)NC(=O)CCCC[C@@H]1SC[C@@H]2NC(=O)N[C@@H]21)[C@@H](C)O)[C@@H](C)O)C(C)C)C(=O)O [MINT-1] (Biotin-KTMPAAMYRLLTAQEQPVYI-OH; C-terminus assumed)		
